Like-named read-outs stand apart in the source and are kept apart here. Peptide text beside a SMILES is read from it.

Consider three compounds from paper PMC4559766 (Scientific Reports, 2015).

A short description of one data set: in vivo. To be noted: BALB/c, mouse, iv, 5 mg/kg.
The conditions of data set [1]: mouse, in vivo.
Method: (§1) The blood was collected and centrifuged at the end of administration for 4 weeks. The serum was placed into eppendorf (EP) tube and immediately sent to the First Affiliated Hospital of Jinan University where several tests closely related to liver/kidney function were performed, and the blood biochemical indexes AST, ALT, AST/ALT, ALB, GLB, ALB/GLB, DBILI, IBILI, TBILI, BUN and CREA were obtained.
The conditions of data set [2]: mouse, in vivo. The source holds these as a separate data set.
Method: (§2) Blood samples were collected by eye bleed from three mice at per time point prior to dosing and from 0.5 to 24 hours postdosing, and the plasma portion was analyzed by using an electrospray ionization, LC/MS/MS method described previously[48]. […] Tri (2-carboxyethyl) phosphine hydrochloride (TCEP) was used as a reducing agent to enhance peptide recovery and was added to all samples at a final concentration of 2 mM. After removing the plasma proteins through adding acetonitrile and centrifugation, the supernatant was transferred to another 96-well plate. Samples were analyzed by LC/MS/MS. Pharmacokinetic parameters were fitted to a two-compartment elimination model, and drug exposure (AUC), elimination half-life (t1⁄2), volume of distribution (Vd) and the clearance (CL) were calculated using WinNonlin Ver.
A further data set has as its target T1, HSA (Homo sapiens, UniProt P02768).
T1 construct: purchased Sigma
Briefly: Phage ELISA of 7-mer peptides for serum albumin binding. As for the experimental part: HSA or MSA were dissolved with 0.1 M NaHCO3 to obtain a solution at 100 μg/ml. The obtained solutions were loaded to each row of wells of enzyme-linked immunosorbent assay (ELISA) multiple-well plate, and the plates were blocked with 1% casein in NaHCO3. Each selected phage clone to be identified was subject to 4-fold serial dilution to allow 10^12 phage particles in the first well and 2.4 × 10^5 phage particles in the twelfth well. Each row of the diluted phages was transferred into the plate coated with HSA or MSA by using a mutichannel pipettor, and the plate was incubated at 25 °C for 1.5 hours. After the microtiter plate was repeatedly washed with TBST, bound phages were detected by incubation with Rabbit anti-M13 phage antibody and HRP-conjugated goat anti-rabbit IgG. ABTS/H2O2 substrate was used to measure the amount of HRP bound and monitor the absorbance at 405 nm.

In data set [3] the test system is Du145 transplanted tumor. Briefly: Subcutaneous Du145 transplanted tumor in nude mice. To be noted: tail vein once a day for 4 weeks. Format: in vivo, BALB/c-nu/nu nude mice. As for the experimental part: Thirty male 4-week-old BALB/c-nu/nu nude mice (17–19 g), were divided into five groups. CK group (blank control) was the mice which were not inoculated Du145 cells, and the remaining four groups received inoculation of Du145 cells. 0.2 ml of Du145 cells suspension with the concentration of 1.5 × 10^7 cells/ml was injected subcutaneously into the right side of back of nude mice. […] The weights and volumes of tumors in different groups were measured once every four days, and tumor growth curves for each group were plotted.

The nature of data set [4]: Blood biochemical indexes of liver and kidney function in tumor-bearing nude mice. To be noted: serum at end of 4 weeks of administration, n = 6.
Method: as §1
The subject of data set [5] is Du145 transplanted tumor. Briefly: Microvessel density of removed tumors (anti-CD31 immunohistochemistry, Weidner method). Format: in vivo, BALB/c-nu/nu nude mice. To be noted: tumors removed after 4 weeks of administration, anti-CD31, n = 6. As for the experimental part: Four weeks after administration, the mice were executed, and the tumors of different groups were removed and fixed with 10% neutral formalin or 2.5% glutaraldehyde. The fixed tumor tissue slides were subjected to Hematoxylin-eosin (HE) staining, immunohistochemistry in which anti-CD31 antibody and biotin-labeled IgG were respectively used as the first and second antibody, and TEM analysis. The microvessel densitied (MVD) in different tumor tissues was calculated using the Weidner method.

T1 sequence (P02768 25-609): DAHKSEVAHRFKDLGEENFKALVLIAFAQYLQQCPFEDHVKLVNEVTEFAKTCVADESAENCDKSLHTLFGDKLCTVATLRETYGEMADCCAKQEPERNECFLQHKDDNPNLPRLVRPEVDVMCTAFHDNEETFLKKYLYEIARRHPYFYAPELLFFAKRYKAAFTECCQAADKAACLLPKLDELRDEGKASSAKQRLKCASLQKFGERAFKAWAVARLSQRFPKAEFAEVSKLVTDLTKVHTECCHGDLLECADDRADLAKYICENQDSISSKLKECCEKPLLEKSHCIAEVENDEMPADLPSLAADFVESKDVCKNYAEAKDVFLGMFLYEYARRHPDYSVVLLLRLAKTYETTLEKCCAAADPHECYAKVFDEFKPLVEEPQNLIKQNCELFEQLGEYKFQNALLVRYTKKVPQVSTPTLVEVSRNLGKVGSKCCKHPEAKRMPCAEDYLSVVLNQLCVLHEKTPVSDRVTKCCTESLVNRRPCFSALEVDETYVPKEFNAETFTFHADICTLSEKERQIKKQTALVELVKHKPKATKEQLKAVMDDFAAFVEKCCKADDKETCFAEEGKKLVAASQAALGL
Method for in vivo: as §2

As usually defined, the AUC is concentration integrated over time. A low value points to low exposure. As a reminder, the Vd is the apparent volume that relates the amount in the body to the concentration in plasma or blood. In general, clearance refers to a measure of how efficiently the substance is removed, as volume per time. A word on the half-life: it is the time in which the quantity being followed falls by half. A higher half-life goes with slow loss. As to `CC[C@H](C)[C@H](NC(=O)[C@H](CCCNC(=N)N)NC(=O)[C@H](CO)NC(=O)[C@@H](NC(=O)[C@@H](NC(=O)[C@H](Cc1c[nH]cn1)NC(=O)[C@@H](NC(=O)[C@H](CC(C)C)NC(=O)[C@@H](N)CC(C)C)[C@@H](C)O)[C@@H](C)O)[C@@H](C)CC)C(=O)N[C@@H](C)C(=O)N[C@H](C(=O)N[C@@H](CO)C(=O)N[C@@H](Cc1ccc(O)cc1)C(=O)N[C@@H](CCC(N)=O)C(=O)N[C@H](C(=O)N[C@@H](CCCCN)C(=O)N[C@H](C(=O)N[C@@H](CC(N)=O)C(=O)N[C@@H](CC(C)C)C(=O)N[C@@H](CC(C)C)C(=O)O)C(C)C)[C@@H](C)O)C(C)C` [P16] (H-LLTHTISRIAVSYQTKVNLL-OH), in the data set “in vivo”, the AUC was 12300 ng·h/mL, the Vd worked out at 0.0561 L/kg, the clearance was 6.75 mL/min/kg and the half-life was 5.76 min. In data set [1], this compound registered an ALB of 17.25 ± 1.35 g/L, an ALB/GLB of 0.45 ± 0.02, an ALT of 131.5 ± 24.5 U/L and an AST of 188.5 ± 29.5 U/L. Further, in data set [1], the AST/ALT is 1.45 ± 0.05, the BUN was determined as 10.63 ± 0.35, the CREA is 9.5 ± 0.5 µM and the DBILI amounted to 3.85 ± 0.25 µM. Also, in data set [1], the GLB was 41.75 ± 1.45 g/L, the IBILI amounted to 9.75 ± 0.45 µM and the TBILI amounted to 13.6 ± 0.2 µM. In data set [2], this compound yielded a half-life of 5.77 min.
With WQRPSSW, on HSA (phage ELISA, plates coated with HSA or MSA), the “binding affinity to HSA compared with MSA” value was “slightly higher than that of mouse serum albumin”. For the same compound, on HSA (sandwich immunoassay (ELISA), 4-fold serial dilution from 10^12 phage particles, absorbance at 405 nm), the “HSA-binding affinity of phage-encoded 7-mer peptide” value is listed as “much higher HSA-binding affinity than HLYWQRP”.
For `C[C@]12CC[C@@H]3c4ccc(OC(=O)N(CCCl)CCCl)cc4CC[C@H]3[C@@H]1CC[C@@H]2O` [Estramustine], the “body weight change of treated mice” value in the data set on Du145 transplanted tumor [3] (40 nM RMP16, estramustine 60 mg/kg) is given as “reduced obviously”. In the data set with Du145 transplanted tumor [3] (0.1 ml of 40 nM RMP16 or P16, estramustine 60 mg/kg, by average tumor weight versus NaCl group, n = 6), this compound came in with a tumor inhibition rate of 83.03%. In data set [4], this compound had an ALB of 15.2 ± 0.6 g/L, an ALB/GLB of 0.36 ± 0.02, an ALT of 81.5 ± 12.5 U/L and an AST of 161 ± 18 U/L. Further, in data set [4], the AST/ALT was found to be 1.99 ± 0.09, the CREA came out at 4 ± 0.3 µM, the DBILI amounted to 3.7 ± 0.4 µM and the GLB is 42.1 ± 3.7 g/L. Moreover, in data set [4], the IBILI worked out at 7.7 ± 0.2 µM and the TBILI stood at 11.4 ± 0.2 µM. Further, in the data set with Du145 transplanted tumor [5], the “microvessel density (MVD)” value came to 8.6 ± 0.83.
